According to US4981799A, “Acylamino acid racemase, production and use thereof” (priority 1987, dated 1991):

Columns and labels:
acylamino acid racemase [1] = experiment: Influences of metal ions on enzyme activities; type: biochemical, Streptomyces sp. Y-53; conditions: for Relative enzyme activity, Additive Concentration 1 mM / Relative enzyme activity, Additive Concentration 10 mM: no additives taken as 100, cobalt chloride excluded; for Relative enzyme activity, Additive Concentration 1 mM: final concentration 1 mM; for Relative enzyme activity, Additive Concentration 10 mM: final concentration 10 mM
Method: Enzyme activities are determined by means of a mixed reaction system comprising 50 μl of a solution of the enzyme, 40 μl of a solution of the substrate, 10 μl of an L-aminoacylase solution and 400 μl of a 50 mM Tris-HCl buffer (pH 7.5 ). As the enzyme solution, a solution prepared by dissolving an acylamino acid racemase standard sample in a Tris-HCl buffer (pH 7.5 ) to 1 to 0.2 unit/ml was used; as the L-aminoacylase solution, a solution prepared by dissolving an L-aminoacylase standard sample (a commercially available product such as that produced by Sigma Co. may be used, but the L-aminoacylase extracted and purified from Y-53 strain was used in the present invention) in a Tris-HCl buffer (pH 7.5) to 40 to 8 units/ml.
The above solutions are mixed together by the sequential addition of the Tris-HCl buffer, substrate solution, L-aminoacylase solution and enzyme solution in this order, and reaction is initiated at 30° C. simultaneously with the addition of the enzyme solution.
For the determination of enzyme activities, the amount of methionine produced in the reaction system is determined by high performance liquid chromatography, and the enzyme activity corresponding to the production of 1 μmol/min. methionine is expressed as 1 unit. When a ymM concentration of methionine has been produced in the reaction system during a reaction time of x minutes, the activity (αunit) of the enzyme in 50 μl solution is calculated by the following equation: [formula]
In Table 4, the enzyme activities are presented in relative activities on the basis of the values obtained in the case of no additives as taken as 100.

acylamino acid racemase [2] = experiment: Substrate specificity of acylamino acid racemase (enzyme activity determination coupled with aminoacylase); type: biochemical, Streptomyces sp. Y-53; conditions: amount of produced methionine taken as 100, free amino acids checked by amino acid oxidase and HPLC; for Relative Activity (D-form substrate): L-aminoacylase coupled; for Relative Activity (L-form substrate): D-aminoacylase of Y-53 strain coupled
Method: Note that the relative activities in Table 3, where N^α -acylamino acids were used as substrates, were determined by the method of enzyme activity determination described in the term .circle.3 , with the values representing the found amount (mM) of the produced α-amino acids corresponding to respective substrates as calculated on the basis of the amount of produced methionine taken as 100. When the substrate was an L-N^α -acylamino acid, D-aminoacylase as produced by Y-53 strain was used in place of L-aminoacylase.

[3] = concentration not singled out (1 mM and 10 mM examined)

| SMILES | Relative enzyme activity, Additive Concentration 1 mM (acylamino acid racemase [1]) | Relative enzyme activity, Additive Concentration 10 mM (acylamino acid racemase [1]) | Relative Activity (D-form substrate) (acylamino acid racemase [2]) | other results |
| --- | --- | --- | --- | --- |
| O.O.O.O.O.O.O.O.O.O.O.O.O.O.O.O.O=S(=O)([O-])[O-].O=S(=O)([O-])[O-].O=S(=O)([O-])[O-].[Al+3].[Al+3] [Al2 (SO4)3 .16H2 O] | 79 | 0 |  | Effect on enzyme activity (in words) (acylamino acid racemase [1]; at 10 mM): inhibit the enzyme activity |
| O.O.[Ba+2].[Cl-].[Cl-] [BaCl2 .2H2 O] | 85 | 120 |  |  |
| [Ca+2].[Cl-].[Cl-] [CaCl2] | 95 | 100 |  |  |
| O.O.O.O.O.O.[Cl-].[Cl-].[Co+2] [CoCl2 .6H2 O] |  | 140 |  | Effect on enzyme activity (in words) (acylamino acid racemase [1]; at 10 mM): hardly activate the enzyme; Effect on enzyme activity (in words) (acylamino acid racemase [1]; low concentrations (around 1 mM)): noticeable activating effect |
| O.O.O.O.O.O.[Cl][Cr]([Cl])[Cl] [CrCl3 .6H2 O] | 96 | 100 |  |  |
| O.O.O.O.O.O=S(=O)([O-])[O-].[Cu+2] [CuSO4 .5H2 O] | 0 | 0 |  | Effect on enzyme activity (in words) (acylamino acid racemase [1]; [3]): noticeable inhibitory effect |
| C[C@@H](N)C(=O)O [D-alanine] |  |  | 0 |  |
| CC(C)C[C@@H](N)C(=O)O [D-leucine] |  |  | 0 |  |
| CSCC[C@@H](N)C(=O)O [D-methionine] |  |  | 0 |  |
| N[C@H](Cc1ccccc1)C(=O)O [D-phenylalanine] |  |  | 0 |  |
| N[C@H](Cc1c[nH]c2ccccc12)C(=O)O [D-tryptophan] |  |  | 0 |  |
| CC(C)[C@@H](N)C(=O)O [D-valine] |  |  | 0 |  |
| O=C(O)CN(CCN(CC(=O)O)CC(=O)O)CC(=O)O [EDTA, reference compound] | 68 | 0 |  | Effect on enzyme activity (in words) (acylamino acid racemase [1]; at 10 mM): noticeable inhibitory effect |
| O.O.O.O.O.O.O.O=S(=O)([O-])[O-].[Fe+2] [FeSO4 .7H2 O] | 100 | 560 |  |  |
| [Cl-].[K+] [KCl] | 110 | 130 |  |  |
| C[C@H](N)C(=O)O [L-alanine] |  |  |  | Relative Activity (L-form substrate) (acylamino acid racemase [2]): 0 |
| CC(C)C[C@H](N)C(=O)O [L-leucine] |  |  |  | Relative Activity (L-form substrate) (acylamino acid racemase [2]): 0 |
| CSCC[C@H](N)C(=O)O [L-methionine] |  |  |  | Relative Activity (L-form substrate) (acylamino acid racemase [2]): 0 |
| N[C@@H](Cc1ccccc1)C(=O)O [L-phenylalanine] |  |  |  | Relative Activity (L-form substrate) (acylamino acid racemase [2]): 0 |
| N[C@@H](Cc1c[nH]c2ccccc12)C(=O)O [L-tryptophan] |  |  |  | Relative Activity (L-form substrate) (acylamino acid racemase [2]): 0 |
| CC(C)[C@H](N)C(=O)O [L-valine] |  |  |  | Relative Activity (L-form substrate) (acylamino acid racemase [2]): 0 |
| [Cl-].[Li+] [LiCl] | 100 | 120 |  |  |
| O.O.O.O.O.O.O.O=S(=O)([O-])[O-].[Mg+2] [MgSO4 .7H2 O] | 890 |  |  | Effect on enzyme activity (in words) (acylamino acid racemase [1]; [3]): the activating effect is greater at 10 mM than at 1 mM |
| O.O.O.O.O.O.O.O=S(=O)([O-])[O-].[Mn+2] [MnSO4 .7H2 O] | 780 |  |  |  |
| CC(=O)N[C@H](C)C(=O)O [N-acetyl-D-alanine] |  |  | 33 |  |
| CC[C@H](C)[C@@H](NC(C)=O)C(=O)O [N-acetyl-D-allo-isoleucine] |  |  | 33 |  |

| SMILES | Relative enzyme activity, Additive Concentration 1 mM (acylamino acid racemase [1]) | Relative enzyme activity, Additive Concentration 10 mM (acylamino acid racemase [1]) | Relative Activity (D-form substrate) (acylamino acid racemase [2]) | other results |
| --- | --- | --- | --- | --- |
| CC(=O)N[C@H](CC(C)C)C(=O)O [N-acetyl-D-leucine] |  |  | 37 |  |
| CSCC[C@@H](NC(C)=O)C(=O)O [N-acetyl-D-methionine] |  |  | 100 |  |
| CC(=O)N[C@H](Cc1ccccc1)C(=O)O [N-acetyl-D-phenylalanine] |  |  | 64 |  |
| CC(=O)N[C@H](Cc1c[nH]c2ccccc12)C(=O)O [N-acetyl-D-tryptophan] |  |  | 10 |  |
| CC(=O)N[C@@H](C(=O)O)C(C)C [N-acetyl-D-valine] |  |  | 35 |  |
| CC(=O)N[C@@H](C)C(=O)O [N-acetyl-L-alanine] |  |  |  | Relative Activity (L-form substrate) (acylamino acid racemase [2]): 21 |
| CC(=O)N[C@@H](CC(C)C)C(=O)O [N-acetyl-L-leucine] |  |  |  | Relative Activity (L-form substrate) (acylamino acid racemase [2]): 74 |
| CSCC[C@H](NC(C)=O)C(=O)O [N-acetyl-L-methionine] |  |  |  | Relative Activity (L-form substrate) (acylamino acid racemase [2]): 100 |
| CC(=O)N[C@@H](Cc1ccccc1)C(=O)O [N-acetyl-L-phenylalanine] |  |  |  | Relative Activity (L-form substrate) (acylamino acid racemase [2]): 84 |
| CC(=O)N[C@@H](Cc1c[nH]c2ccccc12)C(=O)O [N-acetyl-L-tryptophan] |  |  |  | Relative Activity (L-form substrate) (acylamino acid racemase [2]): 8 |
| CC(=O)N[C@H](C(=O)O)C(C)C [N-acetyl-L-valine] |  |  |  | Relative Activity (L-form substrate) (acylamino acid racemase [2]): 19 |
| C[C@@H](NC(=O)c1ccccc1)C(=O)O [N-benzoyl-D-alanine] |  |  | 14 |  |
| O=C(CCl)N[C@H](Cc1ccccc1)C(=O)O [N-chloroacetyl-D-phenylalanine] |  |  | 90 |  |
| CC(C)[C@@H](NC(=O)CCl)C(=O)O [N-chloroacetyl-D-valine] |  |  | 80 |  |
| O=C(CCl)N[C@@H](Cc1ccccc1)C(=O)O [N-chloroacetyl-L-phenylalanine] |  |  |  | Relative Activity (L-form substrate) (acylamino acid racemase [2]): 112 |
| CC(C)[C@H](NC(=O)CCl)C(=O)O [N-chloroacetyl-L-valine] |  |  |  | Relative Activity (L-form substrate) (acylamino acid racemase [2]): 105 |
| CSCC[C@@H](NC=O)C(=O)O [N-formyl-D-methionine] |  |  | 40 |  |
| CSCC[C@H](NC=O)C(=O)O [N-formyl-L-methionine] |  |  |  | Relative Activity (L-form substrate) (acylamino acid racemase [2]): 63 |
| [Cl-].[Na+] [NaCl] | 100 | 130 |  |  |
| O.O.[Na+].[Na+].[O]=[Mo](=[O])([O-])[O-] [NaMoO4 .2H2 O] | 96 | 0 |  | Effect on enzyme activity (in words) (acylamino acid racemase [1]; at 10 mM): inhibit the enzyme activity |
| O.O.O.O.O.O.O=S(=O)([O-])[O-].[Ni+2] [NiSO4 .6H2 O] | 460 | 0 |  |  |
| [Cl][Pb][Cl] [PbCl2] | 78 | 100 |  |  |
| O=S(=O)([O-])[O-].[Sn+2] [SnSO4] | 92 | 100 |  |  |
| O.O.O.O.O.O.[Cl-].[Cl-].[Sr+2] [SrCl2 .6H2 O] | 94 | 110 |  |  |
| O.O.O.O.O.O.O.O=S(=O)([O-])[O-].[Zn+2] [ZnSO4 .7H2 O] | 810 | 80 |  |  |
